Source: ChEMBL document CHEMBL1136169, “Design and synthesis of potent and selective macrocyclic thrombin inhibitors” (Bioorg Med Chem Lett, 2003)

What was measured:
Homo sapiens = organism: Homo sapiens; assay: Concentration of inhibitor in human plasma required to double the activated partial thromboplastin time; type: functional
Serine protease 1 = Serine protease 1 (Homo sapiens, UniProt P07477); assay: Inhibitory activity against human trypsin
Prothrombin = Prothrombin (Homo sapiens, UniProt P00734); assay: Inhibitory activity against thrombin IIa
[1] = target: Tissue-type plasminogen activator (Homo sapiens, UniProt P00750); assay: Inhibitory activity against Tissue plasminogen activator
Chain of Tissue-type plasminogen activator (P00750 whole entry): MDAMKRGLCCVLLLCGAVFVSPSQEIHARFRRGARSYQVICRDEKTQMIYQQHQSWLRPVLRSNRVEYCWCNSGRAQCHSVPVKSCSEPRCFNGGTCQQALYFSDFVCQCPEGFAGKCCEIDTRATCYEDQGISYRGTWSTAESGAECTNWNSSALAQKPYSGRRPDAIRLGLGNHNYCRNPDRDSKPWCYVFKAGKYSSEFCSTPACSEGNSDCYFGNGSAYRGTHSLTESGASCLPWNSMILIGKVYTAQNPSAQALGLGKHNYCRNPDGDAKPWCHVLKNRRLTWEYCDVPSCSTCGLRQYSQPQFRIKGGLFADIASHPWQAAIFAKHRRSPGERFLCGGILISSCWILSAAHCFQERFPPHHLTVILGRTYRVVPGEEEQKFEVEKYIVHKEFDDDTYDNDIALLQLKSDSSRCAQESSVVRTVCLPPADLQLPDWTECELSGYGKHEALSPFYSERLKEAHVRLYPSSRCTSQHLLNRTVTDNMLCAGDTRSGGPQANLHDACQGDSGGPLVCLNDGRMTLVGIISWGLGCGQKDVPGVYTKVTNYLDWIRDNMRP

Chain of Serine protease 1 (P07477 whole entry): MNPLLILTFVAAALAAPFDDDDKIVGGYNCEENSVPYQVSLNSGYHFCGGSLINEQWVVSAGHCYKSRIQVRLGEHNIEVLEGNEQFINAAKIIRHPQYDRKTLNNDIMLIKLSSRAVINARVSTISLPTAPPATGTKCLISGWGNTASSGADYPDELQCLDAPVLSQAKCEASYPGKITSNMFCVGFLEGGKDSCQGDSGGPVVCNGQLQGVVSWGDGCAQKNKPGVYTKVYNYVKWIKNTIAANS

| Compound | 2*APTT (Homo sapiens) [µM] | Ki (Serine protease 1) [nM] | Ki (Prothrombin) [nM] | Ki [1] [nM] |
| --- | --- | --- | --- | --- |
| CN1CCCCCOc2ccc(Cl)cc2CNC(=O)Cn2c(Cl)cnc(c2=O)N[C@@H](Cc2ccccc2)C1 | 1.89 | 40 | 0.02 | 3 |
| O=C1Cn2c(Cl)cnc(c2=O)N[C@@H](Cc2ccccc2)CNC(=O)OC/C=C/COc2ccc(Cl)cc2CN1 | 0.87 | 580 | 0.17 | 480 |
| O=C1COc2ccc(Cl)cc2CNC(=O)[C@@H]2CCCN2C(=O)[C@@H](C2CCCCC2)NC(=O)CN1 | 0.69 | 9300 | 2.9 | 5600 |
| CCNC(=O)Oc1ccc(Cl)cc1CNC(=O)[C@@H]1CCCN1C(=O)[C@@H](N)C1CCCCC1 |  |  | 0.74 |  |
| O=C1Cn2c(Cl)cnc(c2=O)N[C@@H](Cc2ccccc2)CNC(=O)OCCCCOc2ccc(Cl)cc2CN1 | 1.97 | 4000 | 0.63 |  |
| O=C1COc2ccc(Cl)cc2CNC(=O)[C@@H]2CCCN2C(=O)[C@@H](C2CCCCC2)NC(=O)CCCCN1 | 0.36 | 7700 | 1.3 | 48000 |
| O=C1Cn2c(Cl)cnc(c2=O)N[C@@H](Cc2ccccc2)CNCCCCCOc2ccc(Cl)cc2CN1 | 1.22 | 80 | 0.05 | 6 |
| O=C1Cn2c(Cl)cnc(c2=O)N[C@@H](Cc2ccccc2)CNC(=O)OC/C=C\COc2ccc(Cl)cc2CN1 | 0.78 | 110 | 0.06 | 6 |
| O=C1Cn2c(Cl)cnc(c2=O)N[C@@H](Cc2ccccc2)CNCCOc2ccc(Cl)cc2CN1 |  |  | 560 |  |
| O=C1Cn2c(Cl)cnc(c2=O)N[C@@H](Cc2ccccc2)CNCCCNCCc2ccccc2CN1 | 0.47 | 2100 |  | 640 |
| O=C1Cn2c(Cl)cnc(c2=O)N[C@@H](Cc2ccccc2)CNCCOCCOc2ccccc2CN1 | 0.39 | 4600 | 2.1 | 3200 |
| O=C1Cn2c(Cl)cnc(c2=O)N[C@@H](Cc2ccccc2)CNCCCOc2ccc(Cl)cc2CN1 |  |  | 26 |  |
| O=C1Cn2c(Cl)cnc(c2=O)N[C@@H](Cc2ccccc2)CNCCCCNCc2ccccc2CN1 | 0.43 | 41000 | 0.51 | 165000 |
| O=C1COc2ccc(Cl)cc2CNC(=O)[C@@H]2CCCN2C(=O)C(C2CCCCC2)NC(=O)CCN1 (some centres undefined) | 0.36 | 21500 |  | 8900 |
| CN1CCOc2ccccc2CNC(=O)Cn2c(Cl)cnc(c2=O)N[C@@H](Cc2ccccc2)CNC(=O)C1 | 0.5 | 17000 | 3 | 3900 |
| N[C@H](C(=O)N1CCC[C@H]1C(=O)NCc1cc(Cl)ccc1Cl)C1CCCCC1 |  |  | 5 |  |
| CCN(CC)C(=O)CN[C@H](C(=O)N1CCC[C@H]1C(=O)NCc1cc(Cl)ccc1Cl)C1CCCCC1 |  |  | 0.31 |  |
| O=C1Cn2c(Cl)cnc(c2=O)N[C@@H](Cc2ccccc2)CNCCOCCOc2ccc(Cl)cc2CN1 | 0.56 | 110 | 0.05 | 150 |
| O=C1COc2ccc(Cl)cc2CNC(=O)[C@@H]2CCCN2C(=O)[C@@H](C2CCCCC2)NC(=O)CCCN1 | 0.31 | 5000 | 0.4 | 4300 |
| O=C1Cn2c(Cl)cnc(c2=O)N[C@@H](Cc2ccccc2)NCCCCCCOc2ccc(Cl)cc2CN1 | 3.17 | 240 | 0.13 |  |
| O=C1Cn2c(Cl)cnc(c2=O)N[C@@H](Cc2ccccc2)CNCCCCOc2ccc(Cl)cc2CN1 | 0.74 | 90 | 0.2 | 20 |
| O=C1Cn2c(Cl)cnc(c2=O)N[C@@H](Cc2ccccc2)CNCCCCCOc2ccccc2CN1 | 0.6 | 6700 | 2.5 | 360 |
